Data from publication PMC8304660, “Identification of Erythromycin and Clarithromycin Metabolites Formed in Chicken Liver Microsomes Using Liquid Chromatography–High-Resolution Mass Spectrometry” (Foods, 2021).
Where “and” joins values, the source holds several entries; their conditions need not be identical. Identical values can stand only once.

Columns and labels:
[1] = In vitro incubation in chicken liver microsomes with or without NADPH, LC/ESI-HR-MS analysis; format: in vitro ADME; conditions: for Remaining Content −Cofactor, Mean ± SD (%) / Remaining Content (%) −Cofactor, 1 / Remaining Content (%) −Cofactor, 2 / Remaining Content (%) −Cofactor, 3 / Remaining Content +Cofactor, Mean ± SD (%) / Remaining Content (%) +Cofactor, 1 / Remaining Content (%) +Cofactor, 2 / Remaining Content (%) +Cofactor, 3: chicken liver microsomes (CLM), 60 min vs 0 min incubation; for Remaining Content −Cofactor, Mean ± SD (%) / Remaining Content (%) −Cofactor, 1 / Remaining Content (%) −Cofactor, 2 / Remaining Content (%) −Cofactor, 3: no NADPH (control); for Remaining Content −Cofactor, Mean ± SD (%) / Remaining Content +Cofactor, Mean ± SD (%): mean of 3; for Remaining Content (%) −Cofactor, 1 / Remaining Content (%) +Cofactor, 1: replicate 1; for Remaining Content (%) −Cofactor, 2 / Remaining Content (%) +Cofactor, 2: replicate 2; for Remaining Content (%) −Cofactor, 3 / Remaining Content (%) +Cofactor, 3: replicate 3; for Remaining Content +Cofactor, Mean ± SD (%) / Remaining Content (%) +Cofactor, 1 / Remaining Content (%) +Cofactor, 2 / Remaining Content (%) +Cofactor, 3: with NADPH cofactor; on Remaining Content (%) +Cofactor, 2: tested at 1 µM; on Remaining Content (%) +Cofactor, 3: tested at 1 µM; on Remaining Content (%) −Cofactor, 2: tested at 1 µM; on Remaining Content (%) −Cofactor, 3: tested at 1 µM; on Remaining Content +Cofactor, Mean ± SD (%): tested at 1 µM; on Remaining Content −Cofactor, Mean ± SD (%): tested at 1 µM
Procedure: The incubation system (100 μL) contained 65 μL of potassium phosphate buffer (0.1 M, pH 7.4), 20 μL of chicken liver microsomes (5 mg/mL), 5 μL of a compound (20 μM) and […]. After a 5 min preincubation period at 37 °C, the reaction was started by introducing 10 μL of NADPH (10 mM) as the cofactor solution. The final study groups were divided into cofactor and no cofactor (control) groups. After preincubation for 5 min, 10 μL of potassium phosphate buffer (0.1 M, pH 7.4) was added to the control group. […] For 0 min samples, the reaction was quenched immediately after the 5-min preincubation, followed by the addition of 10 μL of NADPH (10 mM) and 10 μL of potassium phosphate buffer (0.1 M, pH 7.4) to the cofactor and control groups, respectively. Following brief sonication (5 min) and vortexing (5 min), the mixtures were centrifuged for 30 min at 3000 rpm and 4 °C. The supernatant was transferred to an Agilent 96-well plate and then analysed on an Agilent 6530 Q-TOF LC-MS/MS instrument.
Liquid chromatographic separation and mass spectrometric detection were performed on an Agilent 1200 series HPLC system and an Agilent 6530 Q-TOF LC-MS/MS system equipped with a dual AJS ESI ion source. Chromatographic separation was performed on an Agilent Eclipse Plus C18 column (100 mm × 2.1 mm; i.d. 3.5 µm) by gradient elution with a mobile phase consisting of 0.1 vol.% formic acid in water (A) and ACN (B) at 40 °C: 0–2 min, 5 vol.% B; 2–3 min, 50 vol.% B; 3–4 min, 75 vol.% B; and 4-5 min, 5 vol.% B. The injection volume was 5 μL with a flow rate of 0.4 mL/min. Before sample injection, the instrument was equilibrated under the initial gradient conditions (A:B = 95:5, v/v) and the above-mentioned column temperature and flow rate conditions. HR-MS detection was carried out in positive ionization mode with the following ion source parameters: capillary voltage, 4000 V; drying gas, 12 L/min and 325 °C; nebulizer gas, 35 psi; and sheath gas, 10 L/min and 350 °C. Mass spectra were acquired in positive ion auto MS/MS mode (F, 100 V; CE, 0 eV) with a full scan range of m/z (100–1000) and a mass scan rate of 5 spectra/s. The mass spectrometer was run in an extended dynamic range mode with a mass range of m/z 50–3200. The mass resolving power was greater than 12,000 FWHM at m/z 1552.
The data were analysed using Agilent MassHunter Quantitative Analysis software (version B.05.00) and Agilent MassHunter Metabolite ID software (version B.04.00) (Santa Clara, CA, USA). The remaining content was evaluated by dividing the ratio of the response of the target compound to the response of the IS at 60 min of incubation by the ratio of the response of the target compound to the response of the IS at 0 min of incubation in the cofactor group or control group.

P-GP = system: P-GP; design: method as in PMID 1732074, PMID 1976065; conditions: cited from earlier work
CYP3A4 = system: CYP3A4; design: method as in PMID 1732074, PMID 1976065; conditions: midazolam as the CYP3A4 substrate; cited from earlier work

CC[C@H]1OC(=O)[C@H](C)[C@@H](O[C@H]2C[C@@](C)(OC)[C@@H](O)[C@H](C)O2)[C@H](C)[C@@H](O[C@@H]2O[C@H](C)C[C@H](N(C)C)[C@H]2O)[C@](C)(O)C[C@@H](C)C(=O)[C@H](C)[C@@H](O)[C@]1(C)O [ERY, erythromycin A]
Remaining Content −Cofactor, Mean ± SD (%) [1]: 94.8 ± 6.3%
Remaining Content (%) −Cofactor, 1 [1]: 99.0%
Remaining Content (%) −Cofactor, 2 [1]: 97.9%
Remaining Content (%) −Cofactor, 3 [1]: 87.6%
Remaining Content +Cofactor, Mean ± SD (%) [1]: 86.6% and 86.6 ± 6.5%
Remaining Content (%) +Cofactor, 1 [1]: 82.6%
Remaining Content (%) +Cofactor, 2 [1]: 83.1%
Remaining Content (%) +Cofactor, 3 [1]: 94.1%

CC[C@H]1OC(=O)[C@H](C)[C@@H](O[C@H]2C[C@@](C)(OC)[C@@H](O)[C@H](C)O2)[C@H](C)[C@@H](O[C@@H]2O[C@H](C)C[C@H](N(C)C)[C@H]2O)[C@](C)(OC)C[C@@H](C)C(=O)[C@H](C)[C@@H](O)[C@]1(C)O [CLA, clarithromycin]
Remaining Content −Cofactor, Mean ± SD (%) [1]: 86.6 ± 12.3%
Remaining Content (%) −Cofactor, 1 [1]: 100.7%
Remaining Content (%) −Cofactor, 2 [1]: 78.7%
Remaining Content (%) −Cofactor, 3 [1]: 80.3%
Remaining Content +Cofactor, Mean ± SD (%) [1]: 89.8% and 89.8 ± 21.5%
Remaining Content (%) +Cofactor, 1 [1]: 77.5%
Remaining Content (%) +Cofactor, 2 [1]: 77.3%
Remaining Content (%) +Cofactor, 3 [1]: 114.7%
Formation of N-desmethyl metabolite ([1]; chicken liver microsomes, incubation for 60 min with NADPH cofactor, extracted ion chromatograms): cannot produce N-desmethyl-clarithromycin
Inhibition of the activity of the drug transporter P-GP (P-GP): do not inhibit
Strength of drug interaction (CYP3A4): strong

O=C1CC2(CCCC2)CC(=O)N1CCCCN1CCN(c2ncccn2)CC1 [BUS, buspirone]
Remaining Content −Cofactor, Mean ± SD (%) [1]: 81.5 ± 13.8%
Remaining Content (%) −Cofactor, 1 [1]: 87.5%
Remaining Content (%) −Cofactor, 2 [1]: 65.7%
Remaining Content (%) −Cofactor, 3 [1]: 91.2%
Remaining Content +Cofactor, Mean ± SD (%) [1]: 48.9% and 48.9 ± 4.5%
Remaining Content (%) +Cofactor, 1 [1]: 46.4%
Remaining Content (%) +Cofactor, 2 [1]: 46.2%
Remaining Content (%) +Cofactor, 3 [1]: 54.1%
